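Values below derive from 48-hour exposures of cells grown in 96-well plates, with endpoints linearly interpolated between the two concentrations bracketing the appropriate inhibition level. GI50 = concentration required for 50% inhibition of growth.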 Active and inactive are the calls of the source. Cut-off read from the data, not from the text of the source: active = GI50 up to about 1.1 µM and inactive = higher.
What was measured:
Assay in all cases: growth of human tumour cells (NCI), 48 h
RXF 393 = tested on: RXF 393
COLO 205 = tested on: COLO 205
SK-MEL-28 = tested on: SK-MEL-28
A498 = tested on: A498
NCI-H226 = tested on: NCI-H226
NCI-H460 = tested on: NCI-H460
HOP-62 = tested on: HOP-62
CAKI-1 = tested on: CAKI-1
HCT-116 = tested on: HCT-116
UACC-62 = tested on: UACC-62
SK-MEL-5 = tested on: SK-MEL-5
DU-145 = tested on: DU-145
HCT-15 = tested on: HCT-15
ACHN = tested on: ACHN
OVCAR-3 = tested on: OVCAR-3
NCI/ADR-RES = tested on: NCI/ADR-RES
HCC 2998 = tested on: HCC 2998
786-0 = tested on: 786-0
PC-3 = tested on: PC-3
SF-295 = tested on: SF-295
MDA-N = tested on: MDA-N
NCI-H23 = tested on: NCI-H23
LOX IMVI = tested on: LOX IMVI
Hs-578T = tested on: Hs-578T
SN12C = tested on: SN12C
UACC-257 = tested on: UACC-257
EKVX = tested on: EKVX
OVCAR-4 = tested on: OVCAR-4
HOP-92 = tested on: HOP-92
IGROV-1 = tested on: IGROV-1
SW-620 = tested on: SW-620
U-251 = tested on: U-251
UO-31 = tested on: UO-31
MDA-MB-435 = tested on: MDA-MB-435
A549 = tested on: A549
M14 = tested on: M14
HT-29 = tested on: HT-29
SF-268 = tested on: SF-268
KM12 = tested on: KM12
SNB-19 = tested on: SNB-19
SF-539 = tested on: SF-539
OVCAR-5 = tested on: OVCAR-5
OVCAR-8 = tested on: OVCAR-8
TK-10 = tested on: TK-10
SNB-75 = tested on: SNB-75
MDA-MB-231 = tested on: MDA-MB-231
SK-OV-3 = tested on: SK-OV-3
SK-MEL-2 = tested on: SK-MEL-2

Compound	GI50 (COLO 205)	GI50 (SK-MEL-28)	GI50 (NCI-H226)	GI50 (HCT-116)	GI50 (DU-145)	GI50 (HCT-15)	GI50 (ACHN)	GI50 (NCI/ADR-RES)	GI50 (SF-295)	GI50 (NCI-H23)	GI50 (SN12C)	GI50 (OVCAR-4)	GI50 (IGROV-1)	GI50 (U-251)	GI50 (UO-31)	GI50 (MDA-MB-435)	GI50 (A549)	GI50 (M14)	GI50 (HT-29)	GI50 (SF-268)	further results
COc1ccc2c(ccc3c(C(=O)NCCN(C)CCNC(=O)c4cn(C)c5c4ccc4cc(OC)ccc45)cn(C)c32)c1	2.01 µM (inactive)	1.79 µM (inactive)	0.628 µM (active)	1.79 µM (inactive)	1.73 µM (inactive)	1.26 µM	1.72 µM (inactive)	1.42 µM (inactive)	1.85 µM (inactive)	1.32 µM (inactive)	1.49 µM (inactive)	1.56 µM (inactive)	1.02 µM (active)	3.16 µM (inactive)	1.45 µM (inactive)	2.38 µM (inactive)	1.79 µM (inactive)	1.64 µM (inactive)	1.4 µM (inactive)	1.95 µM (inactive)	GI50 (RXF 393): 1.4 µM (inactive); GI50 (A498): 20 µM (inactive); GI50 (NCI-H460): 1.45 µM (inactive); GI50 (HOP-62): 1.44 µM (inactive); GI50 (CAKI-1): 1.62 µM (inactive); GI50 (UACC-62): 1.84 µM (inactive); GI50 (SK-MEL-5): 1.63 µM (inactive); GI50 (OVCAR-3): 1.51 µM (inactive); GI50 (HCC 2998): 1.47 µM (inactive); GI50 (786-0): 1.53 µM (inactive); GI50 (PC-3): 1.51 µM (inactive); GI50 (MDA-N): 1.57 µM (inactive); GI50 (LOX IMVI): 2.15 µM (inactive); GI50 (Hs-578T): 1.95 µM (inactive); GI50 (UACC-257): 1.58 µM (inactive); GI50 (EKVX): 1.3 µM (inactive); GI50 (HOP-92): 2.61 µM (inactive); GI50 (SW-620): 2.18 µM (inactive); GI50 (KM12): 1.66 µM (inactive); GI50 (SNB-19): 1.95 µM (inactive)
CCC1(c2ccc(N3C(=O)c4ccccc4C3=O)cc2)CCC(=O)NC1=O (configuration not stated)	> 10 µM (inactive)	> 10 µM (inactive)	> 10 µM (inactive)	> 10 µM (inactive)	> 10 µM (inactive)	> 10 µM	> 10 µM (inactive)	> 10 µM (inactive)	> 10 µM (inactive)	> 10 µM (inactive)	> 10 µM (inactive)	> 10 µM (inactive)	> 10 µM (inactive)	> 10 µM (inactive)	> 10 µM (inactive)	> 10 µM (inactive)	> 10 µM (inactive)	> 10 µM (inactive)	> 10 µM (inactive)	> 10 µM (inactive)	GI50 (RXF 393): > 10 µM (inactive); GI50 (SF-539): > 10 µM (inactive); GI50 (OVCAR-5): > 10 µM (inactive); GI50 (CAKI-1): > 10 µM (inactive); GI50 (SK-MEL-5): > 10 µM (inactive); GI50 (OVCAR-8): > 10 µM (inactive); GI50 (OVCAR-3): > 10 µM (inactive); GI50 (TK-10): > 10 µM (inactive); GI50 (SNB-75): > 10 µM (inactive); GI50 (PC-3): > 10 µM (inactive); GI50 (EKVX): > 10 µM (inactive); GI50 (HOP-92): > 10 µM (inactive); GI50 (SW-620): > 10 µM (inactive); GI50 (MDA-MB-231): > 10 µM (inactive); GI50 (KM12): > 10 µM (inactive); GI50 (SNB-19): > 10 µM (inactive)
O=c1ccn([C@@H]2O[C@H](CO)[C@@H](O)[C@H]2F)c(=O)[nH]1	> 100 µM (inactive)	> 100 µM (inactive)	> 100 µM (inactive)	> 99.8 µM (inactive)	> 100 µM (inactive)	> 99.5 µM	> 100 µM (inactive)	> 100 µM (inactive)	> 100 µM (inactive)	> 100 µM (inactive)	> 100 µM (inactive)	> 100 µM (inactive)	> 100 µM (inactive)	95.1 µM (inactive)	> 100 µM (inactive)	> 100 µM (inactive)	> 100 µM (inactive)	> 100 µM (inactive)	> 100 µM (inactive)	> 100 µM (inactive)	GI50 (A498): > 100 µM (inactive); GI50 (SF-539): > 100 µM (inactive); GI50 (OVCAR-5): > 100 µM (inactive); GI50 (NCI-H460): 88.7 µM (inactive); GI50 (HOP-62): > 100 µM (inactive); GI50 (SK-OV-3): > 100 µM (inactive); GI50 (OVCAR-8): > 100 µM (inactive); GI50 (HCC 2998): > 100 µM (inactive); GI50 (TK-10): > 100 µM (inactive); GI50 (SNB-75): > 100 µM (inactive); GI50 (MDA-N): > 100 µM (inactive); GI50 (Hs-578T): > 100 µM (inactive); GI50 (UACC-257): > 100 µM (inactive); GI50 (SK-MEL-2): > 100 µM (inactive); GI50 (MDA-MB-231): > 100 µM (inactive); GI50 (SNB-19): > 100 µM (inactive)

From ChEMBL document CHEMBL1201862, “PubChem BioAssay data set” (2004)
